Data: PubChem BioAssay (NCI)
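Grown in 96-well plates, cells were treated for 48 hours with each compound at five concentrations. Insufficient inhibition: endpoint recorded as highest concentration tested. At the TGI there is no net growth.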

Legend:
Test in all cases: growth of human tumour cells (NCI), 48 h
[1] = system: NCI-H23 lung
[2] = system: SK-MEL-28 melanoma
[3] = system: SF-268 CNS
[4] = system: MDA-MB-231 breast
[5] = system: ACHN renal
[6] = system: RPMI-8226 leukemia
[7] = system: MDA-N
[8] = system: T-47D breast
[9] = system: U251 CNS
[10] = system: RXF 393 renal
[11] = system: DU-145 prostate
[12] = system: SF-539 CNS
[13] = system: TK-10 renal
[14] = system: OVCAR-4 ovarian
[15] = system: SW-620 colon
[16] = system: MCF7 breast
[17] = system: HCC-2998 colon
[18] = system: OVCAR-5 ovarian
[19] = system: EKVX NSCLC
[20] = system: BT-549 breast

Row | SMILES | TGI [1] | TGI [2] | TGI [3] | TGI [4] | TGI [5] | TGI [6] | TGI [7] | TGI [8] | TGI [9] | TGI [10] | TGI [11] | TGI [12] | TGI [13] | TGI [14] | TGI [15] | TGI [16] | TGI [17] | TGI [18] | TGI [19] | TGI [20]
1 | CCCC1(N2C(=O)c3ccc4c5c(ccc(c35)C2=O)N(C2(CCC)CCCCC2)C4=O)CCCCC1 | > 100 µM | > 100 µM | > 100 µM | > 100 µM | > 100 µM | > 100 µM | > 100 µM | > 100 µM | > 100 µM | > 100 µM | > 100 µM | > 100 µM | > 100 µM | > 100 µM | > 100 µM | > 100 µM | > 100 µM | > 100 µM |  | 
2 | CCOC(=O)c1c(Br)c(-c2ccc([N+](=O)[O-])cc2)c(Br)n1C | > 10 µM | > 10 µM | > 10 µM | > 10 µM | > 10 µM | > 10 µM | > 10 µM | > 10 µM | > 10 µM |  | > 10 µM | > 10 µM | > 10 µM | > 10 µM |  | > 10 µM | > 10 µM | > 10 µM | > 10 µM | > 10 µM
3 | O=C(O)c1ccc(Nc2nc3ccc(C(F)(F)F)cc3nc2-c2ccccc2)cc1 | > 100 µM | > 100 µM | > 100 µM |  | > 100 µM | > 100 µM | > 100 µM | 52.8 µM | > 100 µM | > 100 µM | > 10 µM | 90.8 µM | 52.4 µM |  | > 100 µM | > 100 µM | 40.3 µM | > 100 µM | > 100 µM | 
4 | CC(c1ccccc1)n1c2ccccc2c2c(N)ncnc21 (stereo not given) | 39.5 µM | 33.8 µM | 43.5 µM | 34.9 µM | 31.9 µM | 74.5 µM | 51.9 µM | 59.6 µM | 30.5 µM | 33.5 µM | 42.8 µM | 30.8 µM | 34.9 µM | 31.2 µM | 47.4 µM | 37.2 µM | 34.5 µM | 37.9 µM | 24.7 µM | 
5 | Cc1ccc2nc(-c3nccn3C)cc(C(=O)NC(C)CN(C)C)c2c1 (stereo not given) | > 100 µM | > 100 µM | > 100 µM | > 100 µM | > 100 µM |  | > 100 µM | > 100 µM | > 100 µM | > 100 µM | > 100 µM | > 100 µM | > 100 µM |  | > 100 µM | > 100 µM |  | > 100 µM | > 100 µM | > 100 µM
6 | COc1c(N2CCCCC2)c2c(=O)c3ccccc3oc2c2c3ccccc3n(C)c12 | > 100 µM | > 100 µM | > 100 µM | > 100 µM | > 100 µM | > 100 µM | > 100 µM |  | > 100 µM | > 100 µM | > 100 µM | > 100 µM | > 100 µM | > 100 µM | > 100 µM | > 100 µM | > 100 µM | > 100 µM | > 100 µM | > 100 µM
7 | CC(=O)OC1CC2C(=O)CC1(C)C2(C)C (stereo not given) | > 100 µM | > 100 µM | > 100 µM | > 100 µM | > 100 µM | > 100 µM | > 100 µM | > 100 µM | > 100 µM | > 100 µM | > 100 µM | > 100 µM | > 100 µM | > 100 µM | > 100 µM | > 100 µM | > 100 µM | > 100 µM | > 100 µM | 
8 | CCN(CC)CCC(=O)Nc1ccc2sc3ccccc3c(=O)c2n1 | 43.8 µM | 33.6 µM | 48.5 µM |  | 38.1 µM | 43.5 µM | 30.3 µM | 45.9 µM | 28.8 µM |  | > 100 µM | 33.4 µM | 57.5 µM | > 100 µM | 33.9 µM | 36.5 µM | 42.7 µM | 42.5 µM | > 100 µM | 36.1 µM
9 | C[n+]1ccc2/c(=C\C#N)c3ccccc3n21 | 40.7 µM | 53.5 µM | > 100 µM |  | > 100 µM | 31.3 µM | > 100 µM | 32.7 µM | 72.8 µM | > 100 µM | 46.4 µM |  | 63.9 µM | 72.9 µM | > 100 µM | 65 µM | 50.6 µM | > 100 µM | 85.2 µM | 52.8 µM
10 | CC(Cn1c(=O)oc2ccccc21)N(C)C (stereo not given) | > 100 µM | > 100 µM | > 100 µM | > 100 µM | > 100 µM | > 100 µM | > 100 µM |  | > 100 µM | > 100 µM | > 100 µM | > 100 µM | > 100 µM |  | > 100 µM | > 100 µM |  | > 100 µM | > 100 µM | > 100 µM
11 | COc1c(-c2ccc(F)cc2)oc2c(CC(=O)O)cccc2c1=O | > 100 µM |  | > 100 µM | > 100 µM | > 100 µM |  | > 100 µM | > 100 µM | > 100 µM | > 100 µM | > 100 µM | > 100 µM | > 100 µM |  |  | > 100 µM | > 100 µM | > 100 µM | > 100 µM | > 100 µM
12 | N#Cc1c2c(c(Nc3cccc(C(F)(F)F)c3)n3c1nc1ccccc13)CCCC2 | 89.2 µM | 47.5 µM | 43.1 µM | 58.9 µM | > 100 µM | > 100 µM | 56.7 µM | > 100 µM | 23.7 µM | 86.2 µM | > 100 µM | 31 µM | 44.4 µM | > 100 µM | > 100 µM |  |  | 46.6 µM | 62.4 µM | 95.3 µM
13 | CC(C)(CN1CCCCC1)C(=O)CC(SCCS(=O)(=O)O)c1ccccc1 (stereo not given) |  |  | 65.8 µM | 32.4 µM | 52.9 µM | 46.9 µM | 34.6 µM |  | 53.2 µM | 35 µM | 29.3 µM | 60.3 µM | 38.1 µM | 49.4 µM | 28.8 µM | 33.4 µM | 41.8 µM | 27 µM | 50.5 µM | 49.4 µM
14 | CC(=O)c1ccc(Nc2nc3ccccc3c3occc23)cc1 | 46.6 µM | 15.9 µM | 75.7 µM | > 100 µM | 60.2 µM | 29.6 µM | 47.7 µM | 29.9 µM | > 100 µM |  | 75 µM | 53.4 µM | 35.8 µM | 8.78 µM |  | 56.6 µM | 28.4 µM | > 100 µM | > 100 µM | 64.4 µM
15 | c1cc2cc(Cc3ccc4[nH]ccc4c3)ccc2[nH]1 | 39.8 µM | 96.7 µM | 55.7 µM | 33.8 µM | 64.8 µM |  | 26.5 µM | 53.7 µM | 38.5 µM | 37.7 µM | 56.2 µM | 32.9 µM | 52.3 µM | 28.7 µM | 93.3 µM | 32.3 µM | 28.8 µM | 39.7 µM | 41.7 µM | 45.8 µM
16 | Clc1ccc2c(c1)CC1C[N+]3=C(CCCCC3)C1=C2 (stereo not given) | > 100 µM | > 100 µM | > 100 µM | > 100 µM | > 100 µM |  | > 100 µM | > 100 µM | > 100 µM | > 100 µM | > 100 µM |  | > 100 µM | > 100 µM | > 100 µM | > 100 µM |  | > 100 µM | > 100 µM | > 100 µM
17 | CSc1c(S(C)=O)c2ccccc2n1C (stereo not given) | > 100 µM | > 100 µM | > 100 µM | > 100 µM | > 100 µM | > 100 µM | > 100 µM | > 100 µM |  | > 100 µM | > 100 µM | > 100 µM | > 100 µM | > 100 µM | > 100 µM | > 100 µM | > 100 µM | > 100 µM | > 100 µM | 
18 | S=C1C(CCCOCc2ccccc2)C2CCCC23CC2(CCN13)OCCS2 (stereo not given) | > 10 µM | > 10 µM | > 10 µM | > 10 µM | > 10 µM | > 10 µM | > 10 µM | > 10 µM | > 10 µM | > 10 µM | > 10 µM | > 10 µM | > 10 µM | > 10 µM | > 10 µM | > 10 µM | > 10 µM | > 10 µM | > 10 µM | 
19 | CC(=O)c1sc2c(c1OC(=O)c1ccccc1)c(=O)n(-c1ccccc1)c(=S)n2-c1ccccc1 | > 71.9 µM | 30.4 µM | > 63 µM | 22.7 µM | 12.6 µM | 7.32 µM | 27.2 µM | > 50.3 µM | 23.7 µM | 7.21 µM | 79 µM | 5.65 µM | > 86.9 µM | 57.9 µM | > 82.6 µM | 99.8 µM | 45.4 µM | 17.1 µM | 69.1 µM | 
20 | CCOC(OCC)[C@@H]1C[C@@H]2N(O[C@H](OC3CCCC3(c3ccccc3)c3ccccc3)[C@H](OC(C)=O)[C@@]2(CC)Cc2ccc(OC)c(OC)c2)O1 (stereo not given in full) | > 100 µM | > 100 µM | > 100 µM | > 100 µM | > 100 µM |  | > 100 µM | > 100 µM | > 100 µM | > 100 µM | > 100 µM | > 100 µM | > 100 µM | > 100 µM | > 100 µM | > 100 µM | > 100 µM | > 100 µM | > 100 µM | > 100 µM
